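Where inhibition never reached the appropriate level, the endpoint shown equals the highest concentration tested. Otherwise, values were interpolated linearly from a five-concentration, 48-hour dose response in 96-well plates. Abbreviation: GI50, concentration required for 50% inhibition of growth.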 Active and inactive are the calls of the source. No stated cut-off is given here; in the data, active = GI50 up to about 1.1 µM and inactive = higher. Residues, ends and D or L forms follow the SMILES beside them. *: point of attachment. Boc = CC(C)(C)OC(=O)*; OBn = c1ccc(CO*)cc1
How the values were obtained:
Test in all cases: NCI-60 cell line screen, 48 h
U-251 = system: U-251
HT-29 = system: HT-29
UACC-257 = system: UACC-257
OVCAR-5 = system: OVCAR-5
UACC-62 = system: UACC-62
A498 = system: A498
EKVX = system: EKVX
Malme-3M = system: Malme-3M
MCF7 = system: MCF7
SW-620 = system: SW-620
KM12 = system: KM12
NCI-H226 = system: NCI-H226
K562 = system: K562
MDA-MB-435 = system: MDA-MB-435
MOLT-4 = system: MOLT-4
UO-31 = system: UO-31
Hs-578T = system: Hs-578T
HOP-92 = system: HOP-92
MDA-MB-231 = system: MDA-MB-231
SNB-75 = system: SNB-75

SMILES	GI50 (U-251)	GI50 (HT-29)	GI50 (UACC-257)	GI50 (OVCAR-5)	GI50 (UACC-62)	GI50 (A498)	GI50 (EKVX)	GI50 (Malme-3M)	GI50 (MCF7)	GI50 (SW-620)	GI50 (KM12)	GI50 (NCI-H226)	GI50 (K562)	GI50 (MDA-MB-435)	GI50 (MOLT-4)	GI50 (UO-31)	GI50 (Hs-578T)	GI50 (HOP-92)	GI50 (MDA-MB-231)	GI50 (SNB-75)
CC(C)C(NC(=O)CNC(=O)C1CCCN1C(=O)C(NC(=O)OC(C)(C)C)C(C)C)C(=O)NCC(=O)OCc1ccccc1 (centres undefined) (Boc-VPGVG-OBn; configuration not given here)	> 100 µM (inactive)	> 100 µM (inactive)	> 100 µM (inactive)	> 100 µM (inactive)	> 100 µM (inactive)	> 100 µM (inactive)	> 100 µM (inactive)	> 100 µM (inactive)	> 100 µM (inactive)	> 100 µM (inactive)	> 100 µM (inactive)	> 100 µM (inactive)	61.4 µM (inactive)	> 100 µM (inactive)	> 100 µM (inactive)	> 100 µM (inactive)	80.7 µM (inactive)	> 100 µM (inactive)	> 100 µM (inactive)	–
CC1=C(O)C(=O)C2=C(C1=O)[C@@H]([C@@H](C)C/C=C/C(C)(C)O)CC[C@@H]2C	52.7 µM (inactive)	69.3 µM (inactive)	61.8 µM (inactive)	> 100 µM (inactive)	47.4 µM (inactive)	> 100 µM (inactive)	–	–	41.1 µM (inactive)	77.4 µM (inactive)	31.2 µM (inactive)	74.5 µM (inactive)	41.1 µM (inactive)	43.2 µM (inactive)	35.9 µM (inactive)	62.2 µM (inactive)	48.6 µM (inactive)	–	> 100 µM (inactive)	–
CCOc1nc(N)nc(C)c1/N=N/c1ccc(Cl)cc1	> 100 µM (inactive)	> 100 µM (inactive)	> 100 µM (inactive)	> 100 µM (inactive)	94.4 µM (inactive)	–	51.6 µM (inactive)	34.4 µM (inactive)	> 100 µM (inactive)	> 100 µM (inactive)	> 100 µM (inactive)	20.6 µM (inactive)	48.5 µM (inactive)	> 100 µM (inactive)	10.7 µM (inactive)	45 µM (inactive)	0.124 µM (active)	13.7 µM (inactive)	> 100 µM (inactive)	> 100 µM (inactive)
Brc1ccc(/N=N/N2CCCC2)cc1	89.1 µM (inactive)	> 100 µM (inactive)	93.8 µM (inactive)	> 100 µM (inactive)	> 100 µM (inactive)	41.6 µM (inactive)	66.7 µM (inactive)	> 100 µM (inactive)	65.8 µM (inactive)	> 100 µM (inactive)	70.3 µM (inactive)	> 100 µM (inactive)	60 µM (inactive)	48.1 µM (inactive)	28.6 µM (inactive)	32.4 µM (inactive)	> 100 µM (inactive)	27.2 µM (inactive)	> 100 µM (inactive)	–
C=C(CCOC)CCC1CCCCC(=C)[C@H]1O (some centres undefined)	> 100 µM (inactive)	> 100 µM (inactive)	> 100 µM (inactive)	> 100 µM (inactive)	> 100 µM (inactive)	> 100 µM (inactive)	> 100 µM (inactive)	–	> 100 µM (inactive)	> 100 µM (inactive)	> 100 µM (inactive)	> 100 µM (inactive)	> 100 µM (inactive)	> 100 µM (inactive)	> 100 µM (inactive)	> 100 µM (inactive)	> 100 µM (inactive)	> 100 µM (inactive)	> 100 µM (inactive)	> 100 µM (inactive)
O=C1Nc2ccccc2/C1=N/Nc1c(F)c(F)c(F)c(F)c1F	> 100 µM (inactive)	42.8 µM (inactive)	27.2 µM (inactive)	> 100 µM (inactive)	> 100 µM (inactive)	66.8 µM (inactive)	35 µM (inactive)	–	36.6 µM (inactive)	43.9 µM (inactive)	16.1 µM (inactive)	53 µM (inactive)	8.63 µM (inactive)	> 100 µM (inactive)	12 µM (inactive)	17.1 µM (inactive)	86.7 µM (inactive)	–	> 100 µM (inactive)	91.4 µM (inactive)
CCOC(=O)[C@H](C)OC(=O)[C@@](C)(NC(=O)c1ccccc1C(=O)OC)[C@@H]1NC=C(C(=O)OC)CS1	> 100 µM (inactive)	> 100 µM (inactive)	> 100 µM (inactive)	> 100 µM (inactive)	76 µM (inactive)	> 100 µM (inactive)	> 100 µM (inactive)	97.3 µM (inactive)	79.1 µM (inactive)	> 100 µM (inactive)	> 100 µM (inactive)	> 100 µM (inactive)	36.5 µM (inactive)	27.6 µM (inactive)	41.8 µM (inactive)	> 100 µM (inactive)	> 100 µM (inactive)	–	> 100 µM (inactive)	25.4 µM (inactive)
